Data reported in ChEMBL document CHEMBL1154026, “FXR agonist activity of conformationally constrained analogs of GW 4064” (Bioorg Med Chem Lett, 2009).

Assays:
Bile acid receptor [1] = molecular target: T1, Bile acid receptor (Homo sapiens, UniProt Q96RI1); test: Increase in human FXR-mediated transient transcription of luciferase reporter gene transfected in african green monkey CV1 cells; assay type: cell-based, CV-1
T1 sequence (Q96RI1 whole entry): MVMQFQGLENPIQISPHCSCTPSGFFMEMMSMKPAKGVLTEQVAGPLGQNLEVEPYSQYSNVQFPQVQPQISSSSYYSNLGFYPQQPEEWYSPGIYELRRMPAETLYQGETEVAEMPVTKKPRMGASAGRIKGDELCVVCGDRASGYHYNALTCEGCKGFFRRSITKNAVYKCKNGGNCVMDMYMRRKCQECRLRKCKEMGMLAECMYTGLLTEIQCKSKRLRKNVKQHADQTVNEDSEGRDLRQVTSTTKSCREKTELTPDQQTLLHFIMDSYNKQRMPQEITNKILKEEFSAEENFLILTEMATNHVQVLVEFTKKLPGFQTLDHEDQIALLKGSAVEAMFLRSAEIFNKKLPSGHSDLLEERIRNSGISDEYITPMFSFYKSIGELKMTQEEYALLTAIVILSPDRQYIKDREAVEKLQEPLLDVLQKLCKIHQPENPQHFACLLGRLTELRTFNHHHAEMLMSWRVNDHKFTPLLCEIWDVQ

[2] = molecular target: T2, Bile acid receptor (Homo sapiens) (UniProt Q96RI1); test: Increase in human FXR-mediated transient transcription of luciferase reporter gene transfected in african green monkey CV1 cells relative to GW-4064; assay type: cell-based; parameters: concentration or dose not given beside the values; details: CV-1
T2 sequence (whole entry): T1 sequence (Q96RI1 whole entry)

[3] = molecular target: T2, Bile acid receptor (Homo sapiens); test: Induction of SRC1 coactivator peptide binding to ligand binding domain of human FXR by FRET assay relative to GW-4064; parameters: concentration or dose not given beside the values
Bile acid receptor [4] = molecular target: T1, Bile acid receptor; test: Induction of SRC1 coactivator peptide binding to ligand binding domain of human FXR by FRET assay
[5] = Terminal half life in rat at 1 mg/kg, iv; assay type: ADME, organism-based; parameters: dose 1 mg/kg, route intravenous; details: in vivo, read-out: beta t1/2
[6] = Volume of distribution at steady state in rat at 1 mg/kg, iv; assay type: ADME, organism-based; parameters: dose 1 mg/kg, route intravenous; details: in vivo, read-out: Vdss
[7] = Total clearance in rat at 1 mg/kg, iv; assay type: ADME, organism-based; parameters: dose 1 mg/kg, route intravenous; details: in vivo
[8] = Oral bioavailability in rat at 5 mg/kg; assay type: ADME, organism-based; details: in vivo

| SMILES | EC50 (Bile acid receptor [1]) [nM] | Activity [2] [%] | Activity [3] [%] | EC50 (Bile acid receptor [4]) [nM] | half-life [5] [min] | Vd [6] [L/kg] | clearance [7] [mL/min/kg] | bioavailability [8] [%] |
| --- | --- | --- | --- | --- | --- | --- | --- | --- |
| CC(C)c1onc(-c2c(Cl)cccc2Cl)c1COc1ccc2c(c1)CN(c1cccc(C(=O)O)c1)C2=O | 1100 | 61 | 59 | 670 |  |  |  |  |
| CC(C)c1onc(-c2c(Cl)cccc2Cl)c1COc1ccc2c(c1)CC(=O)N(c1cccc(C(=O)O)c1)C2 | > 10000 |  | 75 | 1100 |  |  |  |  |
| CC(C)c1onc(-c2c(Cl)cccc2Cl)c1COc1ccc2c(c1)ncn2Cc1cccc(C(=O)O)c1 | 5000 | 40 | 38 | 1400 | 31 | 0.085 | 4.4 | 26 |
| CC(C)c1onc(-c2c(Cl)cccc2Cl)c1COc1ccc2[nH]cc(Cc3cccc(C(=O)O)c3)c2c1 | > 10000 |  | 25 | 1500 |  |  |  |  |
| CC(C)c1onc(-c2c(Cl)cccc2Cl)c1CCc1nc2cccc(Nc3cccc(C(=O)O)c3)c2o1 | > 10000 |  | 19 | 1700 |  |  |  |  |
| CC(C)c1onc(-c2c(Cl)cccc2Cl)c1COc1ccc2sc(-c3ccc(C(=O)O)cc3)cc2c1 | 160 | 89 | 80 | 280 |  |  |  |  |
| CC(C)c1onc(-c2c(Cl)cccc2Cl)c1COc1ccc2c(c1)CCN(c1cccc(C(=O)O)c1)C2=O | 8300 | 112 | 52 | 710 |  |  |  |  |
| CC(C)c1onc(-c2c(Cl)cccc2Cl)c1CNc1nc2ccc(-c3cccc(C(=O)O)c3)cc2s1 | 380 | 123 | 91 | 960 |  |  |  |  |
| CC(C)c1onc(-c2c(Cl)cccc2Cl)c1COc1ccc2[nH]c(-c3cccc(C(=O)O)c3)cc2c1 | 630 | 103 | 81 | 480 |  |  |  |  |
| CC(C)c1onc(-c2c(Cl)cccc2Cl)c1CCc1nc2cc(-c3cccc(C(=O)O)c3)ccc2o1 | 710 | 75 | 41 | 1200 |  |  |  |  |
| CC(C)c1onc(-c2c(Cl)cccc2Cl)c1COc1ccc2c(Nc3cccc(C(=O)O)c3)cccc2c1 | 81 | 57 | 95 | 320 |  |  |  |  |
| CC(C)c1onc(-c2c(Cl)cccc2Cl)c1COc1ccc2cc(-c3ccc(C(=O)O)cc3)sc2c1 | 220 | 79 | 95 | 200 |  |  |  |  |
| CC(C)c1onc(-c2c(Cl)cccc2Cl)c1COc1ccc2c(ccn2Cc2cccc(C(=O)O)c2)c1 | 210 | 84 | 80 | 320 | 45 | 0.07 | 6.7 | 12 |
| CC(C)c1onc(-c2c(Cl)cccc2Cl)c1COc1ccc2nc(-c3cccc(C(=O)O)c3)sc2c1 | 410 | 86 | 72 | 410 |  |  |  |  |
| CC(C)c1onc(-c2c(Cl)cccc2Cl)c1COc1ccc2c(ccn2Cc2ccc(C(=O)O)cc2)c1 | 330 | 79 | 80 | 160 |  |  |  |  |
| CC(C)c1onc(-c2c(Cl)cccc2Cl)c1COc1ccc2c(ccn2C(=O)c2cccc(C(=O)O)c2)c1 | 860 | 63 | 68 | 150 |  |  |  |  |
| CC(C)c1onc(-c2c(Cl)cccc2Cl)c1COc1ccc2c(Cc3cccc(C(=O)O)c3)c[nH]c2c1 | 930 | 32 | 81 | 590 |  |  |  |  |
| CC(C)c1onc(-c2c(Cl)cccc2Cl)c1COc1ccc2cc(-c3ccc(C(=O)O)cc3)ccc2c1 | 980 | 170 | 68 | 440 |  |  |  |  |
| CC(C)c1onc(-c2c(Cl)cccc2Cl)c1COc1ccc2cc(-c3cccc(C(=O)O)c3)ccc2c1 | 130 | 103 | 88 | 110 |  |  |  |  |
| CC(C)c1onc(-c2c(Cl)cccc2Cl)c1COc1ccc2cc(-c3cccc(C(=O)O)c3)sc2c1 | 63 | 93 | 92 | 140 |  |  |  |  |
| CC(C)c1onc(-c2c(Cl)cccc2Cl)c1COc1ccc2sc(-c3cccc(C(=O)O)c3)cc2c1 | 32 | 87 | 90 | 55 | 15 | 0.72 | 66 | 8.5 |
| CC(C)c1onc(-c2c(Cl)cccc2Cl)c1COc1ccc2c(ccn2S(=O)(=O)c2cccc(C(=O)O)c2)c1 | 1300 | 63 | 87 | 160 |  |  |  |  |
